Read-outs that look alike come from different tables or passages of the source.
Key:
SARS-COV2 Mpro = SARS-COV2 Mpro (Severe acute respiratory syndrome coronavirus 2, UniProt P0DTD1); assay: COVID-19 (nCoV-2019, SARS-CoV2) Mpro enzymatic assay; format: biochemical; details: read-out: COVID-19 Mpro IC50
Procedure: (§1) Compounds were assayed using standard methods to assess compound activity and IC50. As an exemplary for assessment of the SARS-COV2 Mpro, the C-His6-tagged Mpro (NC_045512) was cloned, expressed in E. coli and purified. The assay buffer contained 20 mM of Tris-HCl (pH 7.3), 100 mM of NaCl, 1 mM of EDTA, 5 mM of TCEP and 0.1% BSA. The final concentrations of the Mpro protein and substrate were 25 nM and 25 μM, respectively, in the Mpro enzymatic assay.
The compounds were added to an assay plate. For 100% inhibition control (HPE, hundred percent effect), 1 μM GC376 was added.
(§2) IC50 values of compounds were calculated with the GraphPad Prism software using the nonlinear regression model of log(inhibitor) vs. response—Variable slope (four parameters). The inhibition activity was calculated using the formula below, IC50 values is calculated using the Inhibition % data.
[formula] • #HEP: Hundred percent effect controls. […] Containing enzyme+substrate, no compound. • Sample: Compound activity testing wells. Containing compound+enzyme+substrate. • BG: Compound background control wells. Containing compound+substrate, no enzyme.

229E Mpro = 229E Mpro (Human coronavirus 229E, UniProt P0C6X1); assay: 229E Mpro enzymatic assay; format: biochemical, HCoV 229E
229E Mpro, sequence (P0C6X1 2966-3267): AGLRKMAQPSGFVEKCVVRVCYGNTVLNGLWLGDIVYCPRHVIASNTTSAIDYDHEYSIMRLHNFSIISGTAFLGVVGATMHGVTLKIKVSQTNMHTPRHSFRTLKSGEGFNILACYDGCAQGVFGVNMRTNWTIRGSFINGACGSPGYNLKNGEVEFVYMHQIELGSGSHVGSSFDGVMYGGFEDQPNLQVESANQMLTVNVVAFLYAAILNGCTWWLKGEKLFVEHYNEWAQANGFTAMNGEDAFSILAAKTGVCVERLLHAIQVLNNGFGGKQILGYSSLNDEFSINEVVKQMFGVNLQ
Procedure: as §1, with “assay. The Km of the Mpro substrate for the protease was 13.5 μM.” for “assay.”
(§3) The compounds were added to an assay plate. For 100% inhibition control (HPE, hundred percent effect), 1 μM GC376 was added. For no inhibition control (ZPE, zero percent effect), no compound was added.
as §2
(§4) [formula] • #HEP: Hundred percent effect controls. Containing substrate+enzyme+1 μM GC376. • ZPE: Zero percent effective controls. Containing enzyme+substrate, no compound. • Sample: Compound activity testing wells. Containing compound+enzyme+substrate. • BG: Compound background control wells. Containing compound+substrate, no enzyme.

OC43 Mpro = OC43 Mpro (Human coronavirus OC43, UniProt P0C6X6); assay: OC43 Mpro enzymatic assay; format: biochemical, HCoV OC43
OC43 Mpro, sequence (P0C6X6 3247-3549): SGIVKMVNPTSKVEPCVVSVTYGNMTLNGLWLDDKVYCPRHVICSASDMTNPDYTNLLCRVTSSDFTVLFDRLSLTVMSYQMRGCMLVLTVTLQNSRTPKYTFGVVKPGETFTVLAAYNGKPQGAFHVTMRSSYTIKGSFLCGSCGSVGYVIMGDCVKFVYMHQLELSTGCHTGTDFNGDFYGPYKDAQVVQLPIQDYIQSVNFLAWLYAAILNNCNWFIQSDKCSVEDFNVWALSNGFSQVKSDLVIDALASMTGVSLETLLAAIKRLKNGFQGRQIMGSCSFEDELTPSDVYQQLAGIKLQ
Procedure: as §1, with “assay. The Km of the Mpro substrate for the protease was 13.5 μM.” for “assay.”
as §3, §2, §4

Structure (SMILES)	IC50 (SARS-COV2 Mpro; Table 5)	IC50 (229E Mpro; Table 5)	IC50 (OC43 Mpro; Table 5)	IC50 (SARS-COV2 Mpro; Table 3)	IC50 (229E Mpro; Table 3)	IC50 (OC43 Mpro; Table 3)
C[C@@H](OC(C)(C)C)[C@H](NC(=O)C1(C(F)(F)F)CC1)C(=O)N1C[C@H]2[C@@H]([C@H]1C(=O)N[C@H](C#N)C[C@@H]1CC(C)(C)NC1=O)C2(C)C [Compound 295, (1R,2S,5S)-3-[(2S,3R)-3-tert-butoxy-2-[[1-(trifluoromethyl)cyclopropanecarbonyl]amino]butanoyl]-N-[(1S)-1-cyano-2-[(3R)-5,5-dimethyl-2-oxo-pyrrolidin-3-yl]ethyl]-6,6-dimethyl-3-azabicyclo[3.1.0]hexane-2-carboxamide]	< 2000 nM	< 2000 nM	< 2000 nM			
C[C@@H](OC1CCC1)[C@H](NC(=O)C(F)(F)F)C(=O)N1C[C@H]2[C@@H]([C@H]1C(=O)N[C@H](C#N)C[C@@H]1CC(C)(C)NC1=O)C2(C)C [Compound 307, (1R,2S,5S)—N-[(1S)-1-cyano-2-[(3R)-5,5-dimethyl-2-oxo-pyrrolidin-3-yl]ethyl]-3-[(2S,3R)-3-(cyclobutoxy)-2-[(2,2,2-trifluoroacetyl)amino]butanoyl]-6,6-dimethyl-3-azabicyclo[3.1.0]hexane-2-carboxamide]				< 2000 nM	< 2000 nM	< 2000 nM
C[C@@H](OC1(C)CCC1)[C@H](NC(=O)C(F)(F)F)C(=O)N1C[C@H]2[C@@H]([C@H]1C(=O)N[C@H](C#N)C[C@@H]1CC(C)(C)NC1=O)C2(C)C [Compound 308, (1R,2S,5S)—N-[(1S)-1-cyano-2-[(3R)-5,5-dimethyl-2-oxo-pyrrolidin-3-yl]ethyl]-6,6-dimethyl-3-[(2S,3R)-3-(1-methylcyclobutoxy)-2-[(2,2,2-trifluoroacetyl)amino]butanoyl]-3-azabicyclo[3.1.0]hexane-2-carboxamide]				< 2000 nM	< 2000 nM	< 2000 nM
C[C@@H](OCC(F)(F)F)[C@H](NC(=O)C(F)(F)F)C(=O)N1C[C@H]2[C@@H]([C@H]1C(=O)N[C@H](C#N)C[C@@H]1CC(C)(C)NC1=O)C2(C)C [Compound 312, (1R,2S,5S)—N-[(1S)-1-cyano-2-[(3R)-5,5-dimethyl-2-oxo-pyrrolidin-3-yl]ethyl]-6,6-dimethyl-3-[(2S,3R)-2-[(2,2,2-trifluoroacetyl)amino]-3-(2,2,2-trifluoroethoxy)butanoyl]-3-azabicyclo[3.1.0]hexane-2-carboxamide]	< 2000 nM	< 2000 nM	< 2000 nM			
C[C@@H](OC1(C)CCC1)[C@H](NC(=O)C(F)(F)F)C(=O)N1C[C@H]2[C@@H]([C@H]1C(=O)N[C@H](C#N)C[C@@H]1CC3(CC3)NC1=O)C2(C)C [Compound 314, (1R,2S,5S)—N-[(1S)-1-cyan-2-[(6R)-5-oxo-4-azaspiro[2.4]heptan-6-yl]ethyl]-6,6-dimethyl-3-[(2S,3R)-3-(1-methylcyclobutoxy)-2-[(2,2,2-trifluoroacetyl)amino]butanoyl]-3-azabicyclo[3.1.0]hexane-2-carboxamide]	< 2000 nM	< 2000 nM	< 2000 nM			
C[C@@H](OC1(C)CC1)[C@H](NC(=O)C(F)(F)F)C(=O)N1C[C@H]2[C@@H]([C@H]1C(=O)N[C@H](C#N)C[C@@H]1CC3(CC3)NC1=O)C2(C)C [Compound 315, (1R,2S,5S)—N-[(1S)-1-cyan-2-[(6R)-5-oxo-4-azaspiro[2.4]heptan-6-yl]ethyl]-6,6-dimethyl-3-[(2S,3R)-3-(1-methylcyclopropoxy)-2-[(2,2,2-trifluoroacetyl)amino]butanoyl]-3-azabicyclo[3.1.0]hexane-2-carboxamide]				< 2000 nM	< 2000 nM	< 2000 nM
CC1(C)C[C@@H](C[C@@H](C#N)NC(=O)[C@@H]2[C@@H]3[C@H](CN2C(=O)C2(NC(=O)C(F)(F)F)CCC2)C3(C)C)C(=O)N1 [Compound 316, (1R,2S,5S)—N-[(1S)-1-cyano-2-[(3R)-5,5-dimethyl-2-oxo-pyrrolidin-3-yl]ethyl]-6,6-dimethyl-3-[1-[(2,2,2-trifluoroacetyl)amino]cyclobutanecarbonyl]-3-azabicyclo[3.1.0]hexane-2-carboxamide]				< 2000 nM	> 30000 nM	10000 to 30000 nM
C[C@@H](OCC(F)(F)F)[C@H](NC(=O)C(F)(F)F)C(=O)N1C[C@H]2[C@@H]([C@H]1C(=O)N[C@H](C#N)C[C@@H]1CC3(CC3)NC1=O)C2(C)C [Compound 319, (1R,2S,5S)—N-[(1S)-1-cyan-2-[(6R)-5-oxo-4-azaspiro[2.4]heptan-6-yl]ethyl]-6,6-dimethyl-3-[(2S,3R)-2-[(2,2,2-trifluoroacetyl)amino]-3-(2,2,2-trifluoroethoxy)butanoyl]-3-azabicyclo[3.1.0]hexane-2-carboxamide]	< 2000 nM	< 2000 nM	< 2000 nM			
C[C@@H](OC1(C2CC2)CC1)[C@H](NC(=O)C(F)(F)F)C(=O)N1C[C@H]2[C@@H]([C@H]1C(=O)N[C@H](C#N)C[C@@H]1CC(C)(C)NC1=O)C2(C)C [Compound 324, (1R,2S,5S)—N-[(1S)-1-cyano-2-[(3R)-5,5-dimethyl-2-oxo-pyrrolidin-3-yl]ethyl]-3-[(2S,3R)-3-(1-cyclopropylcyclopropoxy)-2-[(2,2,2-trifluoroacetyl)amino]butanoyl]-6,6-dimethyl-3-azabicyclo[3.1.0]hexane-2-carboxamide]				< 2000 nM	< 2000 nM	< 2000 nM
C[C@@H](OC1CC1)[C@H](NC(=O)C(F)(F)F)C(=O)N1C[C@H]2[C@@H]([C@H]1C(=O)N[C@H](C#N)C[C@@H]1CC3(CC3)NC1=O)C2(C)C [Compound 326, (1R,2S,5S)—N-[(1S)-1-cyan-2-[(6R)-5-oxo-4-azaspiro[2.4]heptan-6-yl]ethyl]-3-[(2S,3R)-3-(cyclopropoxy)-2-[(2,2,2-trifluoroacetyl)amino]butanoyl]-6,6-dimethyl-3-azabicyclo[3.1.0]hexane-2-carboxamide]	< 2000 nM	< 2000 nM	< 2000 nM			
C[C@@H](OC1CCC1)[C@H](NC(=O)C(F)(F)F)C(=O)N1C[C@H]2[C@@H]([C@H]1C(=O)N[C@H](C#N)C[C@@H]1CC3(CC3)NC1=O)C2(C)C [Compound 327, (1R,2S,5S)—N-[(1S)-1-cyan-2-[(6R)-5-oxo-4-azaspiro[2.4]heptan-6-yl]ethyl]-3-[(2S,3R)-3-(cyclobutoxy)-2-[(2,2,2-trifluoroacetyl)amino]butanoyl]-6,6-dimethyl-3-azabicyclo[3.1.0]hexane-2-carboxamide]	< 2000 nM	< 2000 nM	< 2000 nM			
CC1(C)C[C@@H](C[C@@H](C#N)NC(=O)[C@@H]2[C@@H]3[C@H](CN2C(=O)[C@@H](NC(=O)C(F)(F)F)C2CCC(C)(C)O2)C3(C)C)C(=O)N1 (stereo partly drawn) [Compound 328]				< 2000 nM	< 2000 nM	< 2000 nM
C[C@@H](OC1CC(F)(F)C1)[C@H](NC(=O)C(F)(F)F)C(=O)N1C[C@H]2[C@@H]([C@H]1C(=O)N[C@H](C#N)C[C@@H]1CC(C)(C)NC1=O)C2(C)C [Compound 330, (1R,2S,5S)—N-[(1S)-1-cyano-2-[(3R)-5,5-dimethyl-2-oxo-pyrrolidin-3-yl]ethyl]-3-[(2S,3R)-3-(3,3-difluorocyclobutoxy)-2-[(2,2,2-trifluoroacetyl)amino]butanoyl]-6,6-dimethyl-3-azabicyclo[3.1.0]hexane-2-carboxamide]				< 2000 nM	< 2000 nM	< 2000 nM
C[C@@H](OC1(C2CC2)CC1)[C@H](NC(=O)C(F)(F)F)C(=O)N1C[C@H]2[C@@H]([C@H]1C(=O)N[C@H](C#N)C[C@@H]1CC3(CC3)NC1=O)C2(C)C [Compound 331, (1R,2S,5S)—N-[(1S)-1-cyano-2-[(6R)-5-oxo-4-azaspiro[2.4]heptan-6-yl]ethyl]-3-[(2S,3R)-3-(1-cyclopropylcyclopropoxy)-2-[(2,2,2-trifluoroacetyl)amino]butanoyl]-6,6-dimethyl-3-azabicyclo[3.1.0]hexane-2-carboxamide]				< 2000 nM	< 2000 nM	< 2000 nM
C[C@@H](OC1(C#N)CC1)[C@H](NC(=O)C(F)(F)F)C(=O)N1C[C@H]2[C@@H]([C@H]1C(=O)N[C@H](C#N)C[C@@H]1CC(C)(C)NC1=O)C2(C)C [Compound 334, (1R,2S,5S)-3-[(2S,3R)-3-(1-cyanocyclopropoxy)-2-[(2,2,2-trifluoroacetyl)amino]butanoyl]-N-[(1S)-1-cyano-2-[(3R)-5,5-dimethyl-2-oxo-pyrrolidin-3-yl]ethyl]-6,6-dimethyl-3-azabicyclo[3.1.0]hexane-2-carboxamide]	< 2000 nM	< 2000 nM	< 2000 nM			

From patent US20240277795A1, “INHIBITORS OF CYSTEINE PROTEASES AND METHODS OF USE THEREOF” (Pardes Biosciences, Inc., priority 2021, published 2024)
